Series [1] in a line: Microsomal stability, dog. Type of series: in vitro ADME. Particulars: dog microsomes; read-out: Microsomal stability T1/2 (min) Dog.
Series [2] relates to HCT116 p53 deleted (HCT116 p53−/−). The experiment in a line: Cell growth assay (WST-8), HCT116 p53 deleted. Type of series: cell-based. Particulars: Homo sapiens, HCT-116, 96 h, 4 days.
The subject of series [3] is ZR-75-1. Briefly: Cell growth assay (WST), ZR-75-1. Type of series: cell-based. Particulars: Homo sapiens, ZR-75-1, 96 h, Breast cancer, p53 wild-type, 4 days, read-out: Cell Growth Inhibition (IC50) ZR-75-1. As to the method: Cells were seeded in 96-well flat bottom cell culture plates at a density of 2-3×10^3 cells/well with compounds and incubated for 4 days. […] 92037, USA).

Series [4] concerns SJSA-1 cells. Briefly: Cell growth assay (WST-8), SJSA-1. It is filed as cell-based, human. Particulars: for IC50: Homo sapiens, SJSA-1, 96 h, 4 days. (In general: Tetrazolium dyes change colour on reduction, which living cells bring about.)
The nature of series [5]: Microsomal stability, rat. It is filed as in vitro ADME. Particulars: rat microsomes; read-out: Microsomal stability T1/2 (min) Rat.
Series [6] is described as follows: Microsomal stability, human. Type of series: in vitro ADME. Particulars: human microsomes; read-out: Microsomal stability T1/2 (min) Human.
Series [7] can be described thus: Oral pharmacokinetics in Sprague-Dawley rats. Particulars: rat, in vivo, 25 mg/kg oral.
Series [8] concerns LNCaP. The experiment in a line: Cell growth assay (WST), LNCaP. It is filed as cell-based. Particulars: Homo sapiens, 96 h, Prostate cancer, p53 wild-type, 4 days, read-out: Cell Growth Inhibition (IC50) LNCaP.
Series [9] has as its target T1, recombinant human His-tagged MDM2 protein (residues 1-118) (Homo sapiens, UniProt Q00987). The experiment in a line: biochemical.
The test system of series [10] is SJSA-1 xenograft tumors. Briefly: In vivo efficacy in SJSA-1 xenograft model. Also noted: species or system C.B-17 SCID mice. Particulars: for anti-tumor activity in mice bearing SJSA-1 xenograft tumors (in words): FIG. 2B. The protocol: In Vivo Efficacy Studies Using SJSA-Xenograft Models
SJSA-1 (osteosarcoma) tumor cells were harvested with Trypsin (0.05%)-EDTA (0.53 mM) (GIBCO™, Invitrogen Corp.), growth medium was added, and the cells were placed on ice. A cell sample was mixed 1:1 with Trypan Blue (GIBCO™, Invitrogen Corp.) and counted on a hemocytometer to determine the number of live/dead cells. Cells were washed once with 1×PBS (GIBCO™, Invitrogen Corp.) and resuspended in PBS. For Matrigel injections, after washing in PBS, cells are resuspended in an ice cold mixture of 1:1 PBS and Matrigel (BD Biosciences, Invitrogen Corp.) for a final Matrigel protein concentration of 5 mg/ml. SJSA-1 tumors were inoculated into C.B-17 SCID mice at 5×10^6 cells in 0.1 ml with Matrigel. Cells were injected s.c. into the flank region of each mouse using a 27 gauge needle.
The size of tumors growing in the mice was measured in two dimensions using calipers. Tumor volume (mm^3)=(A×B^2)/2 where A and B are the tumor length and width (in mm), respectively. During treatment, tumor volume and body weight was measured three times a week. After the treatment was stopped, tumor volume and body weight was measured at least once a week. Mice were kept for an additional 60 days for further observation of tumor growth and toxicity. The anti-tumor activity of compound No. 8 (administered via oral gavage) at different doses and according to different dosing schedules, including weekly for 3 weeks (qw*3 wks), every other day for 3 weeks, daily for 3 days out of a week for 3 weeks (qd1-3/w*3 wks), and daily for 2 weeks (qd*14 d), is shown in FIG. 3.

In series [11] the test system is RS4; 11. The experiment in a line: Cell growth assay (WST), RS4;11. Type of series: cell-based. Particulars: Homo sapiens, RS4-11, 96 h, Leukemia, p53 wild-type, 4 days, read-out: Cell Growth Inhibition (IC50) RS4.
The test system of series [12] is Saos2. Briefly: Cell growth assay (WST), Saos2. Type of series: cell-based. Particulars: Homo sapiens, SAOS-2, 96 h, Osteosarcoma, p53 null, 4 days, read-out: Cell Growth Inhibition (IC50) Saos2.
Series [13] concerns PC3. The experiment in a line: Cell growth assay (WST), PC3. It is filed as cell-based. Particulars: Homo sapiens, PC-3, 96 h, Prostate cancer, p53 null, 4 days, read-out: Cell Growth Inhibition (IC50) PC3.
The subject of series [14] is HCT116 p53 WT. Briefly: Cell growth assay (WST-8), HCT116 p53 WT. It is filed as cell-based. Particulars: Homo sapiens, HCT-116, 96 h, 4 days.
A short description of series [15]: Microsomal stability, mouse. Particulars: mouse microsomes; read-out: Microsomal stability T1/2 (min) Mouse. Type of series: in vitro ADME.
For series [16], the target named is T1, recombinant human His-tagged MDM2 protein (residues 1-118). Briefly: Fluorescence-polarization MDM2 competitive binding assay. Particulars: for Ki: MDM2 (FP binding assay) Ki(nM), competitive FP.
Series [17] in a line: Stability of compounds in solution (UPLC). It is filed as physicochemical. Particulars: FIG. 1; 1:1 CH3CN/H2O, 1:1 MeOH/H2O, cell culture media. The protocol:
Stability of Compounds in Solution
The stability of the compounds were determined in 1:1 MeOH:H2O, 1:1 CH3CN:H2O, and cell culture medium using ultra performance liquid chromatography.

The mark [18] stands for this setting: WST-8, read-out: Cell Growth Inhibition IC50 (μM) HCT116 p53 deleted.
Setting [19] is: Colon cancer, p53 knock-out, WST assay, read-out: Cell Growth Inhibition (IC50) HCT116 p53−/−.
[20] abbreviates: WST-8, read-out: Cell Growth Inhibition IC50 (μM) SJSA-1.
Where [21] appears, read: Osteosarcoma, p53 wild-type, WST assay, read-out: Cell Growth Inhibition (IC50) SJSA-1.
The mark [22] stands for this setting: WST-8, read-out: Cell Growth Inhibition IC50 (μM) HCT116 p53 WT.
[23] abbreviates: Colon cancer, p53 wild-type, WST assay, read-out: Cell Growth Inhibition (IC50) HCT116.

Where two headings read alike, the source gives them in different places.

For orientation: AUC(0-inf) means the area under the concentration-time curve extrapolated to infinity. A high value points to more exposure. A word on the AUC(0-t): it is exposure summed from dosing to a finite time, without extrapolation to infinity. Higher therefore signals more exposure. The term Cmax denotes the maximum level reached in the sampled fluid or tissue. As a reminder, the Tmax is the time from dosing to the highest level. As to `O=C(NC12CCC(C(=O)O)(CC1)CC2)[C@@H]1NC2(CCCCC2)[C@@]2(C(=O)Nc3cc(Cl)ccc32)[C@H]1c1cccc(Cl)c1F` [Cpd No. 2], the half-life in [1] is greater than 60 min; in series [5] it was greater than 60 min; in series [6], greater than 60 min; in series [7], 4.29 ± 0.371 h; in series [15] it was greater than 60 min. In addition, the IC50 stood at 14 ± 2 µM in series [2] (setting [18]); 14 ± 2 µM in series [2] (setting [19]); 677 ± 252 nM in [3]; 0.089 ± 0.033 µM in series [4] (setting [20]); 0.089 ± 0.033 µM in series [4] (setting [21]); 36 ± 19 nM in series [8]. Also, the IC50 in series [9] amounted to 5.2 nM; in [11] it was 62 ± 26 nM; in series [12] it was 26700 ± 5100 nM; in series [13] it was 12300 ± 2500 nM; in series [14] (setting [22]), 0.137 ± 0.031 µM; in series [14] (setting [23]) it was 0.137 ± 0.031 µM. The “cell growth inhibition in SJSA-1 cells (in words)” value (from here on “cell growth inhibition”) in series [4] was “potent cell growth inhibition activity”. In addition, the AUC(0-inf) in [7] was found to be 74300 ± 5260 ng·h/mL. Also, the exposure AUC(0-t) in series [7] was 73600 ± 5020 ng·h/mL. The Cmax in series [7] turned out to be 8230 ± 278 ng/mL. In [7], the Tmax is 3.33 ± 1.15 h. In [10], the “anti-tumor activity in mice bearing SJSA-1 xenograft tumors (in words)” value (“anti-tumor activity” for short) is “only modest anti-tumor activity”. Besides, the “binding affinity to MDM2 (in words)” value in [16] was “high binding affinity”.
For the compound `O=C(O)c1ccc(NC(=O)[C@@H]2NC3(CCCCC3)[C@@]3(C(=O)Nc4cc(Cl)ccc43)[C@H]2c2cccc(Cl)c2F)cc1` [AA-MI-061, reference compound], the “cell growth inhibition” value in [4] is reported as “potent cell growth inhibition”. In [10] (100 mg/kg, once, daily dosing, SCID mice bearing SJSA-1 xenografts (FIG. 2A)), the tumor regression amounted to 90%. Besides, in series [16], the “binding affinity to MDM2 (in words)” value is reported as “high binding affinity”.
For the compound `CCN1[C@@H](C(=O)NC23CCC(C(=O)O)(CC2)CC3)[C@H](c2cccc(Cl)c2F)[C@]2(C(=O)Nc3cc(Cl)ccc32)C12CCCCC2` [Cpd No. 8], the half-life is greater than 60 min in [1]; greater than 60 min in [5]; greater than 60 min in [6]; 4.61 ± 1.35 h in [7]; greater than 60 min in series [15]. For the same compound, the IC50 in series [2] (setting [18]) amounted to 8 ± 1 µM; in series [2] (setting [19]), 8 ± 1 µM; in [3], 462 ± 36 nM; in series [4] (setting [20]) it was 0.06 ± 0.022 µM; in series [4] (setting [21]), 0.06 ± 0.022 µM; in [8], 18 ± 13 nM. Further, the IC50 in series [12] worked out at 22700 ± 4700 nM; in series [13], 22000 ± 7200 nM; in series [14] (setting [22]), 0.104 ± 0.036 µM; in [14] (setting [23]), 0.104 ± 0.036 µM. The “stability in solutions (in words)” value in series [17] was “stable in solutions”. This compound also came in with an AUC(0-inf) in [7] of 39500 ± 8520 ng·h/mL. In addition, the AUC(0-t) in series [7] turned out to be 39100 ± 8470 ng·h/mL. In addition, the time to peak (Tmax) in series [7] is 4 h. The “anti-tumor activity” value in [10] was “complete and persistent tumor regression”. For the same compound, the “binding affinity to MDM2 (in words)” value in series [16] is “high binding affinity”.
For orientation: Ki means the equilibrium dissociation constant of an inhibitor or competing ligand from its target. With `CC1(O)CCC2(CC1)N[C@@H](C(=O)NC13CCC(C(=O)O)(CC1)CC3)[C@H](c1cccc(Cl)c1F)[C@]21C(=O)Nc2cc(Cl)ccc21` (some centres unmarked) [Cpd No. 5], the IC50 in series [9] was determined as 131 nM. In series [16], the inhibitory constant (Ki) was 30 nM.
Regarding `CN1[C@@H](C(=O)NC23CCC(C(=O)O)(CC2)CC3)[C@H](c2cccc(Cl)c2F)[C@]2(C(=O)Nc3cc(Cl)ccc32)C12CCCCC2` [Cpd No. 7], the half-life in series [1] was greater than 60 min; in series [5], greater than 60 min; in series [6], greater than 60 min; in series [7], 3.89 ± 1.02 h; in series [15], greater than 60 min. The IC50 in [3] worked out at 713 ± 165 nM. Besides, the “stability in solutions (in words)” value in series [17] was “stable in solutions”. The area under the curve AUC(0-inf) in [7] was 35400 ± 15500 ng·h/mL. For the same compound, the AUC(0-t) in series [7] stood at 35200 ± 15200 ng·h/mL. The time to peak (Tmax) in [7] is 4 h. The “anti-tumor activity” value in series [10] was “complete and persistent tumor regression”. Besides, the “binding affinity to MDM2 (in words)” value in series [16] is on record as “high binding affinity”.
On to `CN1[C@@H](C(=O)NC23CCC(C(N)=O)(CC2)CC3)[C@H](c2cccc(Cl)c2F)[C@]2(C(=O)Nc3cc(Cl)ccc32)C12CCCCC2` [Cpd No. 9], for which the IC50 turned out to be 9 ± 1 µM in series [2] (setting [18]), 0.173 ± 0.031 µM in [4] (setting [20]), 5.2 nM in series [9] and 0.266 ± 0.127 µM in series [14] (setting [22]). Besides, the Ki in series [16] was less than 1 nM.
With `CS(=O)(=O)NC(=O)C12CCC(NC(=O)[C@@H]3NC4(CCCCC4)[C@@]4(C(=O)Nc5cc(Cl)ccc54)[C@H]3c3cccc(Cl)c3F)(CC1)CC2` [Cpd No. 4], the figures for the IC50 in series [4] (setting [20]) and in series [9] were 0.373 µM and 7.9 nM, respectively.
Regarding `O=C(NC12CC(C(=O)O)(C1)C2)[C@@H]1NC2(CCCCC2)[C@@]2(C(=O)Nc3cc(Cl)ccc32)[C@H]1c1cccc(Cl)c1F` [Cpd No. 1], the IC50 in [2] (setting [18]) is 12.6 µM; in series [4] (setting [20]) it was 0.48 µM; in [9], 5.4 nM; in series [14] (setting [22]), 3.7 µM. Also, in [4], the “cell growth inhibition” value is listed as “reduced potency”. Also, in [16], the “binding affinity to MDM2 (in words)” value is given as “high binding affinity”.
On to `O=C(NC12CCC(C(=O)O)(CC1)CC2)[C@@H]1NC2(CCC(F)(F)CC2)[C@@]2(C(=O)Nc3cc(Cl)ccc32)[C@H]1c1cccc(Cl)c1F` [Cpd No. 3], for which the IC50 is 0.165 µM in series [4] (setting [20]) and 8.8 nM in [9]. The Ki in series [16] is less than 1 nM.
With `CC1(O)CCC2(CC1)N[C@@H](C(=O)NC13CCC(C(=O)O)(CC1)CC3)[C@H](c1cccc(Cl)c1F)[C@]21C(=O)Nc2cc(Cl)ccc21` (some centres unmarked) [Cpd No. 6], in series [9], the IC50 worked out at 7.3 nM. Besides, in series [16], the Ki was less than 1 nM.

Values taken from patent US9745314B2, “MDM2 inhibitors and therapeutic methods using the same” (THE REGENTS OF THE UNIVERSITY OF MICHIGAN, priority 2014, dated 2017).
